Test results from paper PMC9293083 (Chemistry (Weinheim an Der Bergstrasse, Germany), 2021).

Assays:
HeLa (cervix carcinoma) = conditions: read-out: IC50 HeLa; cited from earlier work
pBR322 plasmid DNA = assay type: binding
A549 (lung carcinoma) [1] = conditions: read-out: IC50 A549; cited from earlier work
tubulin = assay type: cell-based, human
A549 (lung carcinoma) [2] = tested on: A549 (lung carcinoma)
[3] = tested on: lung mouse embryonic fibroblasts (LMEFs); assay type: cell-based; conditions: 10 μM, 22 h
A549 cells = assay type: cell-based, human

N.N.[Cl][Pt][Cl] [cisplatin, reference compound]
IC50 (HeLa (cervix carcinoma)): 13.6 ± 0.99 µM
electrophoretic mobility of plasmid forms (pBR322 plasmid DNA): electrophoretic shift
IC50 (A549 (lung carcinoma) [1]): 6.45 ± 0.47 µM

COC(=O)Nc1nc2ccc(C(=O)c3cccs3)cc2[nH]1 [nocodazole, reference compound]
tubulin depolymerization / microtubule disassembly (tubulin): notable microtubule disassembly

CN(C)c1ccc(-c2nc3ccccc3s2)cc1 [Me2N‐pbtH, 2‐(4‐dimethylaminophenyl)benzothiazole]
cytotoxic effects against A549 cells (A549 (lung carcinoma) [2]): did not show cytotoxic effects
accumulation in endosomal/lysosomal compartments (LysoTracker) [3]: minor accumulation in the endosomal/lysosomal compartments
accumulation in mitochondria (MitoTracker) [3]: lack of accumulation in mitochondria
cellular internalization (intracellular green fluorescence) (A549 cells): successful internalization
colocalization with Golgi apparatus marker BODIPY TR C5 ceramide (A549 cells): most of the signal colocalized with the Golgi apparatus marker
time to bright green fluorescence (internalization) (A549 cells): 2 to 5 min
